Here are results for 27 molecules from US12612409B2, “Pyrrolopyrimidines as CFTR potentiators” (Cystic Fibrosis Foundation, priority 2016, dated 2026).

The target of the assay is T1, recombinant F508del V470 CFTR in Fischer rat thyroid (FRT) cells (Homo sapiens, UniProt P13569, DEL508-508).
T1 construct: expressed in transfected cells
T1 sequence (P13569 with tags, fused parts or gaps DEL508-508): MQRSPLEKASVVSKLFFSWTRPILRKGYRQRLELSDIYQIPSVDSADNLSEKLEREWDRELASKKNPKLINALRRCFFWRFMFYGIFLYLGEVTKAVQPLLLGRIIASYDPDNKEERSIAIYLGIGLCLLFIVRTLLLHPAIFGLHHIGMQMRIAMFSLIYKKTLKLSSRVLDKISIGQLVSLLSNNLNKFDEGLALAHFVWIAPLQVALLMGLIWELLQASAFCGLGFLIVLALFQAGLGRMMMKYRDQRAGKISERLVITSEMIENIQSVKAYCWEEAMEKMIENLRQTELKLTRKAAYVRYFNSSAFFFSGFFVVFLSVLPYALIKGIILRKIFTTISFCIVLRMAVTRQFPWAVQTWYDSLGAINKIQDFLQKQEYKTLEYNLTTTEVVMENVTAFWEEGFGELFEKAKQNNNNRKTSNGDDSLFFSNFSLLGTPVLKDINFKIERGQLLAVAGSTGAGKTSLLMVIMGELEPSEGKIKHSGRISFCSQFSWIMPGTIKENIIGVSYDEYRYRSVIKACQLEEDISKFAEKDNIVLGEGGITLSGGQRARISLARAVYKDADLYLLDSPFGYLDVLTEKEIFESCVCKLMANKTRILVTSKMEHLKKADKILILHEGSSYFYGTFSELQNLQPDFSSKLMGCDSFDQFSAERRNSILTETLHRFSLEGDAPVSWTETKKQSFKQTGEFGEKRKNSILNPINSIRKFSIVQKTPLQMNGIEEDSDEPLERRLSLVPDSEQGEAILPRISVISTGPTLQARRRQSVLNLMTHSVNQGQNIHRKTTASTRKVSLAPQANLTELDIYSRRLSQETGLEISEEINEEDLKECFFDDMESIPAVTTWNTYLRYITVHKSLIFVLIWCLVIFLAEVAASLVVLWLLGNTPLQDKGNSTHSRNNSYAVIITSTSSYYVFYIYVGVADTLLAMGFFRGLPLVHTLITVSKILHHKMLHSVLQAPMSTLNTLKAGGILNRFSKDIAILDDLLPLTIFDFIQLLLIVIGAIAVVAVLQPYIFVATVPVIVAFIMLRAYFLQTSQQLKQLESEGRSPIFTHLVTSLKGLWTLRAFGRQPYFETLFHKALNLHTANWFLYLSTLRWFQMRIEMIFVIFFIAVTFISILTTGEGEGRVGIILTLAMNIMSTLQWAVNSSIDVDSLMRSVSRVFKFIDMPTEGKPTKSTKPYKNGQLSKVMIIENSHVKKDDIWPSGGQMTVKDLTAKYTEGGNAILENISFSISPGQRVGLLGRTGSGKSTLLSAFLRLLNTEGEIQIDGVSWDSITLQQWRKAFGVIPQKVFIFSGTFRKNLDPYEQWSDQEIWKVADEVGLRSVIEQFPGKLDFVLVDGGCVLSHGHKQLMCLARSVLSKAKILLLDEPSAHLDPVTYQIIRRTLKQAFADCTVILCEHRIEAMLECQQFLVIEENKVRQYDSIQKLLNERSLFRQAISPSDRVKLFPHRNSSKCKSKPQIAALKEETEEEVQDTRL
The experiment in a line: FRT ion flux assay of F508del CFTR potentiation. The class given is cell-based. The following applies: FRT cells expressing F508del V470 CFTR, forskolin 20 uM, 27° C. pre-incubation. As to the method:
FRT Ion Flux Assay of F508del CFTR Potentiation
Fischer rat thyroid (FRT) cell lines stably expressing recombinant F508del V470 CFTR and halide-sensitive yellow fluorescent protein (Pedemonte et al., J. Clin. Invest. 115(9) 2564-71 (2005)) were seeded at 25,000 cells/well in 50 uL/well of culture medium into black-walled, clear bottom tissue-culture-treated 384-well plates (Corning, cat. no. 3712). After one day, the cells were pre-incubated at 27° C./5% CO2 for 16-24 hours. The cells were then washed with dPBS and treated with forskolin (20 uM) and test compound for 30 mi by addition of 20 uL of compound dilution buffer (dPBS containing forskolin and test compound). Plates were loaded into FLIPR384 fluorescence imaging plate reader (Molecular Devices). After an initial fluorescence reading, iodide buffer (25 uL) (composition (in mM): 137 NaI, 1.5 K2PO4, 8.1 NaH2PO4, 2.7 KCl, 0.5 MgCl2, 1 CaCl2) was added and a second fluorescence reading was made after approximately 21 seconds. Data treatment involved division of the second fluorescence reading by the initial fluorescence reading, then scaling of the resulting normalized endpoint fluorescence with respect to the responses for DMSO (0%) and a positive control potentiator (100%).
In the case of `Nc1ncnc2c1c(-c1ccc(Cl)cc1)c(Br)n2Cc1cn(-c2cccc(F)c2)nn1` [Example 319, 6-Bromo-5-(4-chlorophenyl)-7-{[1-(3-fluorophenyl)-1H-1,2,3-triazol-4-yl]methyl}-7H-pyrrolo[2,3-d]pyrimidin-4-amine], the EC50 is 194 nM.

For `CCC(c1cn(-c2ccccc2F)nn1)n1cc(-c2nccnc2OC)c2c(N)ncnc21` (stereo not drawn) [Example 251, 7-{1-[1-(2-Fluorophenyl)-1H-1,2,3-triazol-4-yl]propyl}-5-(3-methoxypyrazin-2-yl)-7H-pyrrolo [2,3-d]pyrimidin-4-amine], the half-maximal effective concentration (EC50) is 5.41 nM.

In the case of `CC(c1cn(-c2ccccc2F)nn1)n1cc(-c2cccc3c2cnn3C)c2c(N)ncnc21` (stereo not drawn) [Example 92, 7-{1-[1-(2-Fluorophenyl)-1H-1,2,3-triazol-4-yl]ethyl}-5-(1-methyl-1H-indazol-4-yl)-7H-pyrrolo[2,3-d]pyrimidin-4-amine], the EC50 was found to be 2420 nM.

Consider `Nc1ncnc2c1c(C1CN(C(=O)C3CC3)C1)cn2Cc1cn(-c2ccccc2F)nn1` [Example 292, [3-(4-Amino-7-{[1-(2-fluorophenyl)-1H-1,2,3-triazol-4-yl]methyl}-7H-pyrrolo[2,3-d]pyrimidin-5-yl)azetidin-1-yl](cyclopropyl) methanone], for which the EC50 was found to be 3210 nM.

On to `CC(c1cnc(-c2ccccc2F)[nH]1)n1cc(-c2cn[nH]c2)c2c(N)ncnc21` (stereo not drawn) [Example 71, 7-{1-[2-(2-Fluorophenyl)-1H-imidazol-5-yl]ethyl}-5-(1H-pyrazol-4-yl)-7H-pyrrolo[2,3-d]pyrimidin-4-amine], for which the concentration for a half-maximal effect (EC50) was found to be 129 nM.

On to `CCC(c1cn(-c2ccc(F)c(F)c2)nn1)n1cc(-c2cncnc2OC)c2c(N)ncnc21` (stereo not drawn) [Example 245, 7-{1-[1-(3,4-Difluorophenyl)-1H-1,2,3-triazol-4-yl]propyl}-5-[4-methoxypyrimidin-5-yl]-7H-pyrrolo[2,3-d] pyrimidin-4-amine], for which the half-maximal effective concentration (EC50) is 42.4 nM.

Consider `Cc1c(C(C)n2cc(-c3cnc(C(F)(F)F)nc3)c3c(N)ncnc32)nnn1-c1ccccc1F` (single isomer, unassigned; enantiomer 2) [Example 180, 7-{1-[1-(2-Fluorophenyl)-5-methyl-1H-1,2,3-triazol-4-yl]ethyl}-5-[2-(trifluoromethyl)pyrimidin-5-yl]-7H-pyrrolo[2,3-d]pyrimidin-4-amine, enantiomer 2], for which the EC50 is 1920 nM.

For `CC(c1cc(-c2ccccc2F)no1)n1cc(-c2ccc3c(c2)OCCO3)c2c(N)ncnc21` (stereo not drawn) [Example 102, 5-(2,3-Dihydro-1,4-benzodioxin-6-yl)-7-{1-[3-(2-fluorophenyl)-1,2-oxazol-5-yl]ethyl}-7H-pyrrolo[2,3-d]pyrimidin-4-amine], the EC50 is 322 nM.

Take `CC(c1cn(-c2ccccc2F)nn1)n1cc(-c2cc[nH]n2)c2c(N)ncnc21` (single isomer, unassigned; enantiomer 2) [Example 122, 7-{1-[1-(2-Fluorophenyl)-1H-1,2,3-triazol-4-yl]ethyl}-5-(1H-pyrazol-3-yl)-7H-pyrrolo[2,3-d]pyrimidin-4-amine, enantiomer 2]: the EC50 is 1050 nM.

`Nc1ncnc2c1c(-c1cnc3[nH]ccc3c1)cn2Cc1cn(-c2ccccc2F)nn1` [Example 80, 7-{[1-(2-Fluorophenyl)-1H-1,2,3-triazol-4-yl]methyl}-5-(7H-pyrrolo[2,3-b]pyridin-5-yl)-7H-pyrrolo[2,3-d]pyrimidin-4-amine]: the half-maximal effective concentration (EC50) was determined as 3780 nM.

On to `CC(c1cc(-c2ccccc2F)no1)n1cc(-c2cc3cnccc3s2)c2c(N)ncnc21` (stereo not drawn) [Example 106, 7-{1-[3-(2-Fluorophenyl)-1,2-oxazol-5-yl]ethyl}-5-(thieno[3,2-c]pyridin-2-yl)-7H-pyrrolo[2,3-d]pyrimidin-4-amine], for which the EC50 was 2080 nM.

Turning to `Cn1ncc2ccc(-c3cn(Cc4cn(-c5ccccc5F)nn4)c4ncnc(N)c34)cc21` [Example 73, 7-{[1-(2-Fluorophenyl)-1H-1,2,3-triazol-4-yl]methyl}-5-(1-methyl-1H-indazol-6-yl)-7H-pyrrolo[2,3-d]pyrimidin-4-amine], the EC50 came to 320 nM.

For the molecule `Cn1cc2cc(-c3cn(Cc4cn(-c5ccccc5F)nn4)c4ncnc(N)c34)ccc2n1` [Example 76, 7-{[1-(2-Fluorophenyl)-1H-1,2,3-triazol-4-yl]methyl}-5-(2-methyl-2H-indazol-5-yl)-7H-pyrrolo[2,3-d]pyrimidin-4-amine], the EC50 was 2380 nM.

Turning to `CCC(c1nnn(-c2ccc(F)cc2F)c1C)n1cc(-c2cnc(C(F)(F)F)nc2)c2c(N)ncnc21` (single isomer, unassigned) [Example 190], the EC50 was 457 nM.

As for `CC(c1cnc(-c2ccccc2F)[nH]1)n1cc(-c2ccc3c(c2)OCC(=O)N3)c2c(N)ncnc21` (stereo not drawn) [Example 65, 7-(4-Amino-7-{1-[2-(2-fluorophenyl)-1H-imidazol-5-yl]ethyl}-7H-pyrrolo[2,3-d]pyrimidin-5-yl)-2H-1,4-benzoxazin-3(4H)-one], the EC50 is 1420 nM.

`CC(c1cc(-c2ccccc2F)no1)n1cc(-c2ccc3c(c2)C(=O)N(C)C3)c2c(N)ncnc21` (stereo not drawn) [Example 101, 6-(4-Amino-7-{1-[3-(2-fluorophenyl)-1,2-oxazol-5-yl]ethyl}-7H-pyrrolo[2,3-d]pyrimidin-5-yl)-2-methyl-2,3-dihydro-1H-isoindol-1-one]: the EC50 was found to be 4060 nM.

Turning to `COc1cc2c(cc1-c1cn(C(C)c3cn(-c4ccccc4F)nn3)c3ncnc(N)c13)CCCC2` (stereo not drawn) [Example 93, 7-{1-[1-(2-Fluorophenyl)-1H-1,2,3-triazol-4-yl]ethyl}-5-(3-methoxy-5,6,7,8-tetrahydronaphthalen-2-yl)-7H-pyrrolo[2,3-d]pyrimidin-4-amine], the concentration giving a half-maximal response (EC50) came to 691 nM.

`CCC(c1cn(-c2ccc(F)cc2F)nn1)n1cc(-c2cncnc2OC)c2c(N)ncnc21` (stereo not drawn) [Example 246, 7-{1-[1-(2,4-Difluorophenyl)-1H-1,2,3-triazol-4-yl]propyl}-5-[4-methoxypyrimidin-5-yl]-7H-pyrrolo[2,3-d] pyrimidin-4-amine]: the EC50 turned out to be 17.2 nM.

On to `Nc1ncnc2c1c(-c1ccc(Cl)cc1)cn2Cc1cn(C2CCCC2)nn1` [Example 281, 5-(4-Chlorophenyl)-7-[(1-cyclopentyl-1H-1,2,3-triazol-4-yl)methyl]-7H-pyrrolo[2,3-d]pyrimidin-4-amine], for which the EC50 turned out to be 170 nM.

For `CCC(c1c[nH]c(-c2ccc(F)cc2F)n1)n1cc(-c2cnc(C(F)(F)F)nc2)c2c(N)ncnc21` (single isomer, unassigned; enantiomer 2) [Example 178, 7-{1-[2-(2,4-Difluorophenyl)-2H-imidazol-4-yl]propyl}-5-[2-(trifluoromethyl)pyrimidin-5-yl]-7H-pyrrolo[2,3-d]pyrimidin-4-amine, enantiomer 2], the EC50 stood at 850 nM.

As for `CC(c1cc(-c2ccccc2F)no1)n1cc(-c2ccc3nonc3c2)c2c(N)ncnc21` (stereo not drawn) [Example 104, 5-(2,1,3-Benzoxadiazol-5-yl)-7-{1-[3-(2-fluorophenyl)-1,2-oxazol-5-yl]ethyl}-7H-pyrrolo[2,3-d]pyrimidin-4-amine], the EC50 was 331 nM.

In the case of `CCC(c1cn(-c2ccccc2F)nn1)n1cc(-c2cnc(C(F)F)nc2)c2c(N)ncnc21` (single isomer, unassigned; enantiomer 2) [Example 144, 5-[2-(Difluoromethyl)pyrimidin-5-yl]-7-{1-[1-(2-fluorophenyl)-1H-1,2,3-triazol-4-yl]propyl}-7H-pyrrolo[2,3-d]pyrimidin-4-amine, enantiomer 2], the 50% effective concentration (EC50) came out at 732 nM.

With `COc1cc(-c2cn(Cc3cn(-c4ccccc4F)nn3)c3ncnc(N)c23)ccc1C#N` [Example 84, 4-(4-Amino-7-{[1-(2-fluorophenyl)-1H-1,2,3-triazol-4-yl]methyl}-7H-pyrrolo[2,3-d]pyrimidin-5-yl)-2-methoxybenzonitrile], the 50% effective concentration (EC50) was found to be 1560 nM.

Take `CC(c1cnc(-c2ccccc2F)[nH]1)n1cc(-c2cnc3[nH]ccc3c2)c2c(N)ncnc21` (stereo not drawn) [Example 62, 7-{1-[2-(2-Fluorophenyl)-1H-imidazol-5-yl]ethyl}-5-(7H-pyrrolo[2,3-b]pyridin-5-yl)-7H-pyrrolo[2,3-d]pyrimidin-4-amine]: the 50% effective concentration (EC50) is 2220 nM.

For `CCC(c1cn(-c2ccccc2F)nn1)n1cc(-c2cc[nH]n2)c2c(N)ncnc21` (single isomer, unassigned; enantiomer 1) [Example 147, 7-{1-[1-(2-Fluorophenyl)-1H-1,2,3-triazol-4-yl]propyl}-5-(1H-pyrazol-3-yl)-7H-pyrrolo[2,3-d]pyrimidin-4-amine, enantiomer 1], the concentration giving a half-maximal response (EC50) stood at 479 nM.

Consider `CC(c1cn(-c2ccccc2F)nn1)n1cc(C2COC2)c2c(N)ncnc21` (stereo not drawn) [Example 250, 7-{1-[1-(2-Fluorophenyl)-1H-1,2,3-triazol-4-yl]ethyl}-5-(oxetan-3-yl)-7H-pyrrolo[2,3-d] pyrimidin-4-amine], for which the half-maximal effective concentration (EC50) was found to be 2200 nM.

Take `CC(c1cn(-c2ccccc2F)nn1)n1cc(-c2ccc3c(cnn3C)c2)c2c(N)ncnc21` (stereo not drawn) [Example 95, 7-{1-[1-(2-Fluorophenyl)-1H-1,2,3-triazol-4-yl]ethyl}-5-(1-methyl-1H-indazol-5-yl)-7H-pyrrolo[2,3-d]pyrimidin-4-amine]: the EC50 amounted to 488 nM.
